Molecular target: hKIF18A (1-374) (Homo sapiens (Human), UniProt Q8NI77)
Assay: Inhibition of KIF18A microtubule-dependent ATPase activity (ADP-Glo)
Format: biochemical
Conditions: 4 nM hKIF18A (1-374)
Summary of the method: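 Reaction was started with pre-formed microtubules and ATP (0.2 mg/mL and 2.0 mM in the added mix) and run 60 min at 28 °C. ADP was read by ADP-Glo luminescence, and IC50 came from a four-parameter fit of % inhibition.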

Chain of hKIF18A (1-374) (Q8NI77 1-374): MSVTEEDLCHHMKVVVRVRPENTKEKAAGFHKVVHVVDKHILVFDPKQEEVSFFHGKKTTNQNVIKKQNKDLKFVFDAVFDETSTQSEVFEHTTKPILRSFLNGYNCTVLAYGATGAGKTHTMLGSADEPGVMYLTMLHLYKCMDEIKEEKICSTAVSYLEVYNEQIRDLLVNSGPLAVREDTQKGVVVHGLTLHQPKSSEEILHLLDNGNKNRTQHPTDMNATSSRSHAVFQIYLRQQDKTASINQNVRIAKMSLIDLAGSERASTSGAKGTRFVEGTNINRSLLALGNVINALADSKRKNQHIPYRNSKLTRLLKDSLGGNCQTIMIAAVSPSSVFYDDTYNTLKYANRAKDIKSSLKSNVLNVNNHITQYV

| IC50 [nM] | SMILES |
| --- | --- |
| 44 | Cc1cc(-c2cnc(-c3ccc(NS(C)(=O)=O)cc3N3CCC4(CC3)CC4)[nH]2)nc(N2CCC(F)(F)CC2)n1 [Compound 26, N-(4-(5-(2-(4,4-difluoropiperidin-1-yl)-6-methylpyrimidin-4-yl)-1H-imidazol-2-yl)-3-(6-azaspiro[2.5]octan-6-yl)phenyl)methanesulfonamide] |
| 45 | Cc1cc(-c2cnc(-c3ccc(NS(C)(=O)=O)cc3N3CCC4(CC3)CC4)[nH]2)nc(N2CCC(F)(F)CC2)c1 [Compound 28, N-(4-(5-(6-(4,4-difluoropiperidin-1-yl)-4-methylpyridin-2-yl)-1H-imidazol-2-yl)-3-(6-azaspiro[2.5]octan-6-yl)phenyl)methanesulfonamide] |
| 14 | O=S(=O)(CCO)Nc1ccc(-c2cn(-c3ccc(F)c(S(=O)(=O)N4CC(F)(F)C4)c3)nn2)c(N2CCC3(CC2)CC3)c1 [Compound 129, N-(4-(1-(3-((3,3-difluoroazetidin-1-yl)sulfonyl)-4-fluorophenyl)-1H-1,2,3-triazol-4-yl)-3-(6-azaspiro[2.5]octan-6-yl)phenyl)-2-hydroxyethane-1-sulfonamide] |
| 3.1 | O=S(=O)(CCO)Nc1ccc(-n2cc(-c3ccc(C(O)C4CCCC4)o3)nn2)c(N2CCC3(CC2)CC3)c1 (single isomer, unassigned) [Compound 51b] |
| 83 | CCOC(=O)CS(=O)(=O)Nc1ccc(-c2nnc(-c3cccc(N4CCC(F)(F)CC4)n3)[nH]2)c(N2CCC3(CC2)CC3)c1 [Compound 7, ethyl 2-(N-(4-(5-(6-(4,4-difluoropiperidin-1-yl)pyridin-2-yl)-4H-1,2,4-triazol-3-yl)-3-(6-azaspiro[2.5]octan-6-yl)phenyl)sulfamoyl)acetate] |
| 13 | CC1CN(c2cccc(-c3cn(-c4ccc(NS(C)(=O)=O)cc4N4CCC5(CC4)CC5)nn3)n2)CCO1 (stereo not drawn) [Compound 56, N-(4-(4-(6-(2-methylmorpholino)pyridin-2-yl)-1H-1,2,3-triazol-1-yl)-3-(6-azaspiro[2.5]octan-6-yl)phenyl)methanesulfonamide] |
| 14 | CC(C)(C)NS(=O)(=O)c1cccc(-c2cn(-c3ccc(NS(=O)(=O)CCO)cc3N3CCC4(CC3)CC4)nn2)c1 [Compound 121, N-(tert-butyl)-3-(1-(4-((2-hydroxyethyl)sulfonamido)-2-(6-azaspiro[2.5]octan-6-yl)phenyl)-1H-1,2,3-triazol-4-yl)benzenesulfonamide] |
| 17 | CCS(=O)(=O)Nc1ccc(-n2cc(-c3cnc(C)c(N4CCC(F)(F)CC4)n3)nn2)c(N2CCC3(CC2)CC3)c1 [Compound 145, N-(4-(4-(6-(4,4-difluoropiperidin-1-yl)-5-methylpyrazin-2-yl)-1H-1,2,3-triazol-1-yl)-3-(6-azaspiro[2.5]octan-6-yl)phenyl)ethanesulfonamide] |
| 41 | CS(=O)(=O)Nc1ccc(-n2cc(-c3cccc(N4CC5(CCO5)C4)n3)nn2)c(N2CCC3(CC2)CC3)c1 [Compound 58, N-(4-(4-(6-(1-oxa-6-azaspiro[3.3]heptan-6-yl)pyridin-2-yl)-1H-1,2,3-triazol-1-yl)-3-(6-azaspiro[2.5]octan-6-yl)phenyl)methanesulfonamide] |
| 32 | Cc1cc(-c2cn(-c3ccc(NS(C)(=O)=O)cc3N3CCC4(CC3)CC4)nn2)nc(N2CCC(F)(F)CC2)n1 [Compound 21, N-(4-(4-(2-(4,4-difluoropiperidin-1-yl)-6-methylpyrimidin-4-yl)-1H-1,2,3-triazol-1-yl)-3-(6-azaspiro[2.5]octan-6-yl)phenyl)methanesulfonamide] |
| > 30000 | CS(=O)(=O)Nc1ccc(-c2noc(-c3cccc(N4CCOCC4)n3)n2)c(N2CCC3(CC2)CC3)c1 [Compound 164, N-(4-(5-(6-morpholinopyridin-2-yl)-1,2,4-oxadiazol-3-yl)-3-(6-azaspiro[2.5]octan-6-yl)phenyl)methanesulfonamide] |
| 16 | Cc1cc(-c2cn(-c3ccc(NS(=O)(=O)CCO)cc3N3CCC4(CC3)CC4)nn2)nc(N2CCC(F)C2)n1 (stereo not drawn) [Compound 102, N-(4-(4-(2-(3-fluoropyrrolidin-1-yl)-6-methylpyrimidin-4-yl)-1H-1,2,3-triazol-1-yl)-3-(6-azaspiro[2.5]octan-6-yl)phenyl)-2-hydroxyethane-1-sulfonamide] |
| 150 | CS(=O)(=O)Nc1ccc(-n2cc(-c3nc(N4CCC(F)(F)CC4)ns3)nn2)c(N2CCC3(CC2)CC3)c1 [Compound 135, N-(4-(4-(3-(4,4-difluoropiperidin-1-yl)-1,2,4-thiadiazol-5-yl)-1H-1,2,3-triazol-1-yl)-3-(6-azaspiro[2.5]octan-6-yl)phenyl)methanesulfonamide] |
| 4.7 | CS(=O)(=O)Nc1ccc(-n2cc(-c3ccc(C(O)C4CCCC4)o3)nn2)c(N2CCC3(CC2)CC3)c1 (stereo not drawn) [Compound 25, N-(4-(4-(5-(cyclopentyl(hydroxy)methyl)furan-2-yl)-1H-1,2,3-triazol-1-yl)-3-(6-azaspiro[2.5]octan-6-yl)phenyl)methanesulfonamide] |
| 63 | CCS(=O)(=O)Nc1ccc(-c2cn(-c3cc(C)cc(N4CCC(F)(F)CC4)n3)nn2)c(N2CCC3(CC2)CC3)c1 [Compound 108, N-(4-(1-(6-(4,4-difluoropiperidin-1-yl)-4-methylpyridin-2-yl)-1H-1,2,3-triazol-4-yl)-3-(6-azaspiro[2.5]octan-6-yl)phenyl)ethanesulfonamide] |
| 23 | O=S(=O)(CCO)Nc1ccc(-c2cn(-c3cccc(OC4CCCC4)n3)nn2)c(N2CCC3(CC2)CC3)c1 [Compound 113, N-(4-(1-(6-(cyclopentyloxy)pyridin-2-yl)-1H-1,2,3-triazol-4-yl)-3-(6-azaspiro[2.5]octan-6-yl)phenyl)-2-hydroxyethane-1-sulfonamide] |
| 5600 | c1cc(-c2nnc(-c3cccnc3N3CCC4(CC3)CC4)[nH]2)nc(N2CCOCC2)c1 [Compound 4, 4-(6-(5-(2-(6-azaspiro[2.5]octan-6-yl)pyridin-3-yl)-4H-1,2,4-triazol-3-yl)pyridin-2-yl)morpholine] |
| 140 | CS(=O)(=O)Nc1ccc(-c2ncc(-c3cccc(NC4CC(F)(F)C4)n3)[nH]2)c(N2CCC3(CC2)CC3)c1 [Compound 32, N-(4-(5-(6-((3,3-difluorocyclobutyl)amino)pyridin-2-yl)-1H-imidazol-2-yl)-3-(6-azaspiro[2.5]octan-6-yl)phenyl)methanesulfonamide] |
| 1100 | CS(=O)(=O)Nc1ccc(-n2cc(-c3cccc(N4CCC(F)(F)CC4)n3)nn2)c(N2CCCC2)c1 [Compound 16, N-(4-(4-(6-(4,4-difluoropiperidin-1-yl)pyridin-2-yl)-1H-1,2,3-triazol-1-yl)-3-(pyrrolidin-1-yl)phenyl)methanesulfonamide] |
| 11 | CS(=O)(=O)Nc1ccc(-n2cc(-c3cccc(C(O)C4CCCC4)n3)nn2)c(N2CCC3(CC2)CC3)c1 (stereo not drawn) [Compound 22, N-(4-(4-(6-(cyclopentyl(hydroxy)methyl)pyridin-2-yl)-1H-1,2,3-triazol-1-yl)-3-(6-azaspiro[2.5]octan-6-yl)phenyl)methanesulfonamide] |
| 1.6 | CS(=O)(=O)Nc1cc(N2CCC3(CC2)CC3)c(-n2cc(-c3cccc(N4CCC(F)(F)CC4)n3)nn2)cn1 [Compound 59, N-(5-(4-(6-(4,4-difluoropiperidin-1-yl)pyridin-2-yl)-1H-1,2,3-triazol-1-yl)-4-(6-azaspiro[2.5]octan-6-yl)pyridin-2-yl)methanesulfonamide] |

— patent publication US20230382889A1 (Volastra Therapeutics, Inc., priority 2022, published 2023)
